{"source": "patent US20230212225A1", "about": "“PEPTIDE COMPOSTIONS AND METHODS FOR TREATING TAUOPATHIES” (AXOLTIS PHARMA, priority 2019, published 2023)", "key": {"[1]": {"tested_on": "Aβ25-35-induced short-term memory deficits", "test": "Spontaneous alternation performance (Y-maze), treatment started 1 hour after Aβ25-35 injection, tested D08", "type": "in vivo, mice", "settings": "for Y-maze % (Sc.Aβ / Vhc = 100) / Y-maze Mean, percentage of alternation: D08"}, "[2]": {"tested_on": "Aβ25-35-induced long-term memory deficits", "test": "Step-through passive avoidance test (STPA), D09-D10", "type": "in vivo, mice"}, "[3]": {"tested_on": "Aβ25-35-induced short-term memory deficits", "test": "Long-term study (120 days): weekly Y-maze, NX218 and/or DPZ based treatments", "type": "in vivo, mice", "procedure": "To investigate the potential of NX218 treatment to maintain cognitive restoration for a longer duration and to work as a 2nd line treatment when DPZ lose its activity: a long-term study (120 days) was performed in the Aβ25-35 mouse model of Tauopathies.\nMice were assigned to 6 treatment groups with 5-6 animals per group as described below.\nFrom D01 until D120, mice of groups 1 and 2 were administered IP once a day (o.d.) with vehicle (water for injection).\nTest compound NX218: • From D11 until D38, mice of group 3 were administered IP o.d. with NX218 at 2 mg/kg (mice were not treated with vehicle from D01 until D10). • From D01 until D120, mice of group 4 were administered IP o.d. with NX218 at 2 mg/kg.\nDPZ rescued by test compound NX218: • From D01, mice of group 5 were administered PO by gavage o.d with DPZ at its active dose (1 mg/kg) until its effect disappears. Its efficacy disappeared on D36. DPZ was administered until D43 and then from D44, NX218 replaced DPZ until D78 via IP administration once a day at its active dose (2 mg/kg). • From D79 until D99: NX218 was administered via IP administration o.d. at a higher dose (4 mg/kg). • From D100 until D113 NX218 was administered via IP administration o.d. at a higher dose (8 mg/kg). • Administration of NX218 was stopped from D114 until animals were sacrificed.\nTest compound NX218 in combination with DPZ: • From D01 until D120, mice of group 6 were co-administered with NX218 and DPZ at their respective subactive doses: • NX218: IP o.d., 0.1 mg/kg • DPZ: PO o.d., 0.25 mg/kg\nAll groups performed one behavioral test every week starting on D08 (7 days after Aβ25-35 peptide injection) to monitor the effects of the compounds:\nSpontaneous alternation procedure in the Y-maze (YM, assessing spatial short-term/working memory as described in example 3) on D08, D15, D22, D29, D36, D43, D50, D57, D64, D71, D78, D85, D92, D99, D106, D113 and D120."}, "[4]": {"test": "Preliminary PK study in rat", "type": "in vivo", "settings": "slow bolus IV 49 mg/kg of NX210", "procedure": "(§1) Therefore NX210 PK in animals is followed by the measurement of its cyclic form NX218. First a preliminary PK study in rat was performed in order to validate the method for detecting NX218 in plasma then translated to monkey by performing a more robust PK study with repeated experiments. All PK studies were performed with NaCl 0.9% as vehicle."}, "[5]": {"test": "PK study in monkey", "type": "in vivo", "settings": "for half-life: plasma, iv, 10 mg/kg", "procedure": "as §1\nIn the 3 monkeys tested, data were reproducible after repeated testing at different days (D22, D37 and D51), after bolus IV injection of 10 mg/kg of NX210."}, "[6]": {"settings": "once a day, NX210 0.1 mg/kg, NX218 0.1 mg/kg, DPZ 0.25 mg/kg"}, "[7]": {"settings": "monkey plasma NX218 after bolus IV 10 mg/kg NX210, mean"}}, "note": "Like-named read-outs stand apart in the source and are kept apart here. Where a SMILES comes first, the peptide text is derived from it. Bridges are numbered along the chain shown (N, C = ends).", "data": [{"compound": "COc1cc2c(cc1OC)C(=O)C(CC1CCN(Cc3ccccc3)CC1)C2", "note": "(centres unmarked) [DPZ, Donepezil, reference compound]", "values": [{"measurement": "Y-maze % (Sc.Aβ / Vhc = 100)", "setting": "[1]; PO 0.25 mg/kg once a day", "result": 56, "unit": "%"}, {"measurement": "Y-maze Mean, percentage of alternation", "setting": "[1]; PO 0.25 mg/kg once a day", "result": 41.82, "unit": "%"}, {"measurement": "Y-maze % (Sc.Aβ / Vhc = 100)", "setting": "[1]; PO 1 mg/kg once a day", "result": 93, "unit": "%"}, {"measurement": "Y-maze Mean, percentage of alternation", "setting": "[1]; PO 1 mg/kg once a day", "result": 68.90, "unit": "%"}, {"measurement": "effect on Aβ25-35-induced short-term memory deficits (Y-maze) at subactive dose, in words", "setting": "[1]; [6]", "result": "do not impede"}, {"measurement": "EL % (Sc.Aβ / Vhc = 100)", "setting": "[2]; PO 0.25 mg/kg once a day", "result": 445, "unit": "%"}, {"measurement": "EL Mean, escape latency, retention session", "setting": "[2]; PO 0.25 mg/kg once a day", "result": 88.67, "unit": "s"}, {"measurement": "STL % (Sc.Aβ / Vhc = 100)", "setting": "[2]; PO 0.25 mg/kg once a day", "result": 39, "unit": "%"}, {"measurement": "STL Mean, step-through latency, retention session", "setting": "[2]; PO 0.25 mg/kg once a day", "result": 109.33, "unit": "s"}, {"measurement": "EL % (Sc.Aβ / Vhc = 100)", "setting": "[2]; PO 1 mg/kg once a day", "result": 122, "unit": "%"}, {"measurement": "EL Mean, escape latency, retention session", "setting": "[2]; PO 1 mg/kg once a day", "result": 24.25, "unit": "s"}, {"measurement": "STL % (Sc.Aβ / Vhc = 100)", "setting": "[2]; PO 1 mg/kg once a day", "result": 94, "unit": "%"}, {"measurement": "STL Mean, step-through latency, retention session", "setting": "[2]; PO 1 mg/kg once a day", "result": 265.83, "unit": "s"}, {"measurement": "effect on contextual long-term memory deficits (STL and EL) at subactive dose, in words", "setting": "[2]; [6]", "result": "do not impede"}, {"measurement": "duration of efficacy (Y-maze), in words", "setting": "[3]; Group 5, DPZ PO 1 mg/kg o.d.", "result": "efficient only until D36"}, {"measurement": "% of alternation at DPZ resistance", "setting": "[3]; Group 5, after 4 weeks of DPZ treatment", "result": 37, "unit": "%"}, {"measurement": "Y-maze (D43) Mean (percentage of alternation)", "setting": "[3]; Group 5: DPZ 1 mg/kg PO o.d. D01-D43, tested D43", "result": 38.73, "unit": "%"}, {"measurement": "Y-maze (D43) %", "setting": "[3]; Group 5: DPZ 1 mg/kg PO o.d. D01-D43, tested D43, Group 1 = 100", "result": 52, "unit": "%"}, {"measurement": "Y-maze (D08) Mean, percentage of alternation", "setting": "[3]; Group 5: DPZ 1 mg/kg PO o.d. from D01, tested D08", "result": 72.08, "unit": "%"}, {"measurement": "Y-maze (D08) %", "setting": "[3]; Group 5: DPZ 1 mg/kg PO o.d. from D01, tested D08, Group 1 = 100", "result": 98, "unit": "%"}, {"measurement": "Y-maze (D15) Mean, percentage of alternation", "setting": "[3]; Group 5: DPZ 1 mg/kg PO o.d. from D01, tested D15", "result": 76.00, "unit": "%"}, {"measurement": "Y-maze (D15) %", "setting": "[3]; Group 5: DPZ 1 mg/kg PO o.d. from D01, tested D15, Group 1 = 100", "result": 98, "unit": "%"}, {"measurement": "Y-maze (D22) Mean, percentage of alternation", "setting": "[3]; Group 5: DPZ 1 mg/kg PO o.d. from D01, tested D22", "result": 79.07, "unit": "%"}, {"measurement": "Y-maze (D22) %", "setting": "[3]; Group 5: DPZ 1 mg/kg PO o.d. from D01, tested D22, Group 1 = 100", "result": 106, "unit": "%"}, {"measurement": "Y-maze (D29) Mean, percentage of alternation", "setting": "[3]; Group 5: DPZ 1 mg/kg PO o.d. from D01, tested D29", "result": 62.05, "unit": "%"}, {"measurement": "Y-maze (D29) %", "setting": "[3]; Group 5: DPZ 1 mg/kg PO o.d. from D01, tested D29, Group 1 = 100", "result": 80, "unit": "%"}, {"measurement": "Y-maze (D36) Mean (percentage of alternation)", "setting": "[3]; Group 5: DPZ 1 mg/kg PO o.d. from D01, tested D36", "result": 36.23, "unit": "%"}, {"measurement": "Y-maze (D36) %", "setting": "[3]; Group 5: DPZ 1 mg/kg PO o.d. from D01, tested D36, Group 1 = 100", "result": 49, "unit": "%"}]}, {"compound": "N=C(N)NCCC[C@@H]1NC(=O)[C@H](CO)NC(=O)[C@@H](NC(=O)[C@H](CO)NC(=O)[C@H](CO)NC(=O)[C@H](Cc2c[nH]c3ccccc23)NC(=O)CNC(=O)[C@H](CO)NC(=O)[C@@H](N)Cc2c[nH]c3ccccc23)CSSC[C@@H](C(=O)NCC(=O)O)NC(=O)[C@H](CO)NC1=O", "note": "[NX218, W-S-G-W-S-S-C-S-R-S-C-G] (H-WSGWSSCSRSCG-OH; disulfide 7-11; N-terminus and C-terminus assumed)", "values": [{"measurement": "time after injection from which NX218 became impossible to quantify in plasma", "setting": "[4]", "result": 3, "unit": "h"}, {"measurement": "AUC", "setting": "[5]; [7]", "result": 960, "unit": "ng·h/mL"}, {"measurement": "AUC(0-inf)", "setting": "[5]; [7]", "result": 1060, "unit": "ng·h/mL"}, {"measurement": "Cmax", "setting": "[5]; [7]", "result": 19300, "unit": "ng/mL"}, {"measurement": "Tmax", "setting": "[5]; [7]", "result": 0, "unit": "h"}, {"measurement": "clearance", "setting": "[5]; [7]", "result": 190, "unit": "mL/min/kg"}, {"measurement": "Vd", "setting": "[5]; monkey plasma NX218 after bolus IV 10 mg/kg NX210, mean, read-out: VSS", "result": 0.0936, "unit": "L/kg"}, {"measurement": "plasma concentration course after injection, in words", "setting": "[5]; monkey, bolus IV 10 mg/kg of NX210", "result": "rapidly decreased up to 30 minutes"}, {"measurement": "half-life", "setting": "[5]; monkey, monkey plasma NX218 after bolus IV 10 mg/kg NX210, mean, read-out: t½", "result": 12.7, "unit": "min"}, {"measurement": "half-life", "setting": "[5]; monkey, monkey, bolus IV 10 mg/kg NX210, NX218 measured, read-out: half-life", "result": "~12", "unit": "min"}]}]}
